Measurements from PubChem BioAssay AID2060501 (Molecular Pharmacology Branch, DTP, NCI, 2025).
Values belong to the compound of their own block, whether it stands above or below them.

Test system: 282377-053-R-J1-PDC complex spheroids, viability
Assay: Anticancer human tumor 282377-053-R-J1-PDC patient-derived colon adenocarcinoma cell line growth inhibition [GQUAD]
Conditions: for IC50: curve of first compound; for viability, T/C: stronger effect = lower value
Method in brief: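 Tumor cells were grown as complex spheroids with HUVEC endothelial cells and mesenchymal stem cells as stroma. G-quadruplex stabilizers were combined with targeted agents over half-log dilutions from near the clinical Cmax, or from 10 microM.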

[1] = second compound 0.0316 µM, first compound 0.0316 µM
[2] = second compound 0.0316 µM, first compound 0.1 µM
[3] = second compound 0.0316 µM, first compound 0.316 µM
[4] = second compound 0.0316 µM, first compound 1 µM
[5] = second compound 0.0316 µM, first compound 3.16 µM
[6] = second compound 0.0316 µM, first compound 10 µM
[7] = second compound 0.1 µM, first compound 0.0316 µM
[8] = second compound 0.1 µM, first compound 0.1 µM
[9] = second compound 0.1 µM, first compound 0.316 µM
[10] = second compound 0.1 µM, first compound 1 µM
[11] = second compound 0.1 µM, first compound 3.16 µM
[12] = second compound 0.1 µM, first compound 10 µM
[13] = second compound 0.316 µM, first compound 0.0316 µM
[14] = second compound 0.316 µM, first compound 0.1 µM
[15] = second compound 0.316 µM, first compound 0.316 µM
[16] = second compound 0.316 µM, first compound 1 µM
[17] = second compound 0.316 µM, first compound 3.16 µM
[18] = second compound 0.316 µM, first compound 10 µM
[19] = second compound 1 µM, first compound 0.0316 µM
[20] = second compound 1 µM, first compound 0.1 µM
[21] = second compound 1 µM, first compound 0.316 µM
[22] = second compound 1 µM, first compound 1 µM
[23] = second compound 1 µM, first compound 3.16 µM
[24] = second compound 1 µM, first compound 10 µM
[25] = second compound 3.16 µM, first compound 0.0316 µM
[26] = second compound 3.16 µM, first compound 0.1 µM
[27] = second compound 3.16 µM, first compound 0.316 µM
[28] = second compound 3.16 µM, first compound 1 µM
[29] = second compound 3.16 µM, first compound 3.16 µM
[30] = second compound 3.16 µM, first compound 10 µM
[31] = second compound 10 µM, first compound 0.0316 µM
[32] = second compound 10 µM, first compound 0.1 µM
[33] = second compound 10 µM, first compound 0.316 µM
[34] = second compound 10 µM, first compound 1 µM
[35] = second compound 10 µM, first compound 3.16 µM
[36] = second compound 10 µM, first compound 10 µM
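Further: spheroids exposed to compounds for 7 days before readout.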
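Wherever viability, T/C is given: percent of vehicle DMSO control viability with 100% = untreated-like growth.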

Compound: C=CCn1c(=O)c2cnc(Nc3ccc(N4CCN(C)CC4)cc3)nc2n1-c1cccc(C(C)(C)O)n1 + CN(C)c1ccc(Nc2c3ccc(NC(=O)CCN4CCCC4)cc3nc3cc(NC(=O)CCN4CCCC4)ccc23)cc1
IC50 (second compound 0.0316 µM): 1.91 µM
IC50 (second compound 0.1 µM): 1.98 µM
IC50 (second compound 0.316 µM): 2.04 µM
IC50 (second compound 1 µM): 1.86 µM
IC50 (second compound 3.16 µM): 1.8 µM
IC50 (second compound 10 µM): 2.32 µM
viability, T/C [1]: 94.2%
viability, T/C [2]: 99.9%
viability, T/C [3]: 83.3%
viability, T/C [4]: 75.2%
viability, T/C [5]: 30.8%
viability, T/C [6]: 16.7%
viability, T/C [7]: 108%
viability, T/C [8]: 95.3%
viability, T/C [9]: 82.7%
viability, T/C [10]: 73.3%
viability, T/C [11]: 33.9%
viability, T/C [12]: 15.1%
viability, T/C [13]: 105%
viability, T/C [14]: 84.8%
viability, T/C [15]: 74.5%
viability, T/C [16]: 90.1%
viability, T/C [17]: 26.5%
viability, T/C [18]: 16.1%
viability, T/C [19]: 85.2%
viability, T/C [20]: 90.9%
viability, T/C [21]: 94.2%
viability, T/C [22]: 76.4%
viability, T/C [23]: 27.5%
viability, T/C [24]: 16.7%
viability, T/C [25]: 92.8%
viability, T/C [26]: 82.5%
viability, T/C [27]: 92.8%
viability, T/C [28]: 68.5%
viability, T/C [29]: 31.8%
viability, T/C [30]: 16.1%
viability, T/C [31]: 86.7%
viability, T/C [32]: 78.3%
viability, T/C [33]: 104%
viability, T/C [34]: 78.4%
viability, T/C [35]: 39.1%
viability, T/C [36]: 15.3%

IC50 (second compound 0.0316 µM): > 10 µM
IC50 (second compound 0.1 µM): > 10 µM
IC50 (second compound 0.316 µM): > 10 µM
IC50 (second compound 1 µM): > 10 µM
IC50 (second compound 3.16 µM): > 10 µM
IC50 (second compound 10 µM): 3.74 µM
Compound: C=CC(=O)N1CCN(c2nc(=O)n(-c3c(C)ccnc3C(C)C)c3nc(-c4c(O)cccc4F)c(F)cc23)C(C)C1 (stereo unspecified) + Cc1cnc(CNC(=O)c2c(=O)c3ccc(N4CCCN(C)CC4)nc3n3c2sc2ccccc23)cn1
viability, T/C [1]: 129%
viability, T/C [2]: 116%
viability, T/C [3]: 115%
viability, T/C [4]: 116%
viability, T/C [5]: 103%
viability, T/C [6]: 100%
viability, T/C [7]: 119%
viability, T/C [8]: 91.7%
viability, T/C [9]: 115%
viability, T/C [10]: 122%
viability, T/C [11]: 110%
viability, T/C [12]: 94.1%
viability, T/C [13]: 89.8%
viability, T/C [14]: 98.9%
viability, T/C [15]: 102%
viability, T/C [16]: 98.3%
viability, T/C [17]: 103%
viability, T/C [18]: 90.8%
viability, T/C [19]: 77.2%
viability, T/C [20]: 64.2%
viability, T/C [21]: 74.7%
viability, T/C [22]: 80.4%
viability, T/C [23]: 76%
viability, T/C [24]: 57.4%
viability, T/C [25]: 60.2%
viability, T/C [26]: 51%
viability, T/C [27]: 63.2%
viability, T/C [28]: 53.6%
viability, T/C [29]: 61.9%
viability, T/C [30]: 53.6%
viability, T/C [31]: 52.2%
viability, T/C [32]: 40.8%
viability, T/C [33]: 58.4%
viability, T/C [34]: 56.6%
viability, T/C [35]: 56.9%
viability, T/C [36]: 33%

Compound: CCc1c2c(nc3ccc(O)cc13)-c1cc3c(c(=O)n1C2)COC(=O)[C@]3(O)CC + Cc1[nH]c2ccc(F)cc2c1-c1nc2c3cccnc3c3ncccc3c2[nH]1
IC50 (second compound 0.0316 µM): 0.0278 µM
IC50 (second compound 0.1 µM): 0.0267 µM
IC50 (second compound 0.316 µM): 0.0352 µM
IC50 (second compound 1 µM): 0.0205 µM
IC50 (second compound 3.16 µM): 0.00328 µM
IC50 (second compound 10 µM): < 0.000999 µM
viability, T/C (second compound 0.0316 µM, first compound 0.000999 µM): 125%
viability, T/C (second compound 0.0316 µM, first compound 0.00316 µM): 79.7%
viability, T/C (second compound 0.0316 µM, first compound 0.00999 µM): 65.6%
viability, T/C [1]: 54.4%
viability, T/C (second compound 0.0316 µM, first compound 0.0999 µM): 37.9%
viability, T/C [3]: 29.4%
viability, T/C (second compound 0.1 µM, first compound 0.000999 µM): 112%
viability, T/C (second compound 0.1 µM, first compound 0.00316 µM): 99.3%
viability, T/C (second compound 0.1 µM, first compound 0.00999 µM): 64%
viability, T/C [7]: 49.8%
viability, T/C (second compound 0.1 µM, first compound 0.0999 µM): 34.2%
viability, T/C [9]: 25.5%
viability, T/C (second compound 0.316 µM, first compound 0.000999 µM): 107%
viability, T/C (second compound 0.316 µM, first compound 0.00316 µM): 83.3%
viability, T/C (second compound 0.316 µM, first compound 0.00999 µM): 64.4%
viability, T/C [13]: 47.9%
viability, T/C (second compound 0.316 µM, first compound 0.0999 µM): 46.8%
viability, T/C [15]: 26.9%
viability, T/C (second compound 1 µM, first compound 0.000999 µM): 87.2%
viability, T/C (second compound 1 µM, first compound 0.00316 µM): 77.6%
viability, T/C (second compound 1 µM, first compound 0.00999 µM): 52.6%
viability, T/C [19]: 47%
viability, T/C (second compound 1 µM, first compound 0.0999 µM): 36.6%
viability, T/C [21]: 25.9%
viability, T/C (second compound 3.16 µM, first compound 0.000999 µM): 71.5%
viability, T/C (second compound 3.16 µM, first compound 0.00316 µM): 51%
viability, T/C (second compound 3.16 µM, first compound 0.00999 µM): 33.4%
viability, T/C [25]: 25.9%
viability, T/C (second compound 3.16 µM, first compound 0.0999 µM): 17.1%
viability, T/C [27]: 11.8%
viability, T/C (second compound 10 µM, first compound 0.000999 µM): 21.1%
viability, T/C (second compound 10 µM, first compound 0.00316 µM): 29.2%
viability, T/C (second compound 10 µM, first compound 0.00999 µM): 12.5%
viability, T/C [31]: 8.86%
viability, T/C (second compound 10 µM, first compound 0.0999 µM): 9.45%
viability, T/C [33]: 8.4%
